Source: patent US10913736B2 (UNIVERSITY OF WASHINGTON, priority 2014, dated 2021)
“And” between values parts separate entries of the source, which are not always exact repeats. Equal entries are not always repeated. Where two headings read alike, the source gives them in different places.

Assays:
MetRS (T. brucei) = MetRS (T. brucei) (Trypanosoma brucei brucei, UniProt Q38C91); test: MetRS (T. brucei) ATP depletion assay using Kinase-Glo; type: biochemical
T. brucei = test: Growth inhibition assay of T. brucei cell cultures (Alamar Blue, 48 h); type: cell-based
[1] = Trypanosoma brucei; read-out: B) T. brucei EC50

Sequence of MetRS (T. brucei) (Q38C91 entry or part of it): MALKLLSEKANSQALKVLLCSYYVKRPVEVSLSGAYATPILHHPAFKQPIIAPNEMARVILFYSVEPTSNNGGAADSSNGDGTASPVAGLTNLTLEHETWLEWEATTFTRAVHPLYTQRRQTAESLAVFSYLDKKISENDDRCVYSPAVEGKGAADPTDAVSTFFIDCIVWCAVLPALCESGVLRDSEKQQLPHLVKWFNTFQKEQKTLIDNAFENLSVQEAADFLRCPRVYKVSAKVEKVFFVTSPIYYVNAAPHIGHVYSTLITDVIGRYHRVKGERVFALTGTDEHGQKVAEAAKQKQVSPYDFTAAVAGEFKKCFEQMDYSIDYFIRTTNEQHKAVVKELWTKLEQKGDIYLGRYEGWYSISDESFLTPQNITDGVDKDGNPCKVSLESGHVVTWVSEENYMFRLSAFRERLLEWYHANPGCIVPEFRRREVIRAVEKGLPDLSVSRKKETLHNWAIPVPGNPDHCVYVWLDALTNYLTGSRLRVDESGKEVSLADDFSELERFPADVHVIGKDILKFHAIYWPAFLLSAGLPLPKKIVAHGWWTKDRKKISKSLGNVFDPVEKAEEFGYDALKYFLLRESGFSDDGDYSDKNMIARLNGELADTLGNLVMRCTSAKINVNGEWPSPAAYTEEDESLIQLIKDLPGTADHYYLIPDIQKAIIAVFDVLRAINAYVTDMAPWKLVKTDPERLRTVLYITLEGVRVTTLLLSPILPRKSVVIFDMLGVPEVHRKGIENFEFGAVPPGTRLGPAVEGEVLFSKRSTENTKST

Row | Compound | IC50 (MetRS (T. brucei)) | EC50 (T. brucei; [1]) [µM] | EC50 (T. brucei; read-out: B) T. brucei EC50) [µM]
1 | O=C1CN(Cc2cccc(Cl)c2)CCN1Cc1nc2ccccc2[nH]1 [Compound 1736, 1-((1H-benzo[d]imidazol-2-yl)methyl)-4-(3-chlorobenzyl)piperazin-2-one] | > 10 µM | > 20 | 
2 | O=C1CN(C(=O)c2ccc3ccccc3c2)CCN1Cc1nc2ccccc2[nH]1 [Compound 1760, 1-((1H-benzo[d]imidazol-2-yl)methyl)-4-(2-naphthoyl)piperazin-2-one] | > 10 µM | > 10 | 
3 | O=C(Cc1nc2ccc(Cl)cc2[nH]1)NCc1cc(Cl)cc(Cl)c1 [Compound 1804, N-(3,5-dichlorobenzyl)-2-(6-chloro-1H-benzo[d]imidazol-2-yl)acetamide] | 0.389 µM | 15 | 
4 | OC1N[C@@H](Cc2ccc(Cl)cc2Cl)C(O)N1Cc1nc2ccccc2[nH]1 (stereo partly drawn) [Compound 1906, (5S)-3-((H-benzo[d]imidazol-2-yl)methyl)-5-(2,4-dichlorobenzyl)imidazolidine-2,4-diol] | 2.94 µM | 6.23 | 
5 | Cc1ccc2nc(CC(C)NCc3cc(Cl)cc(Cl)c3)[nH]c2c1 (stereo not drawn) [Compound 1820, [(3,5-dichlorophenyl)methyl][1-(6-methyl-1H-1,3-benzodiazol-2-yl)propan-2-yl]amine] | 0.29 µM | 3.14 | 
6 | N[C@@H](COc1ccc(Cl)cc1Cl)C(=O)NCc1nc2ccccc2[nH]1 [Compound 1807, (S)—N-((1H-benzo[d]imidazol-2-yl)methyl)-3-(2,4-dichlorophenoxy)-2-aminopropanamide] | 1.55 µM | 3.73 | 
7 | CC(=O)N(Cc1cc(Cl)cc(Cl)c1)[C@@H]1CCC[C@H](c2nc3nc(Cl)ccc3[nH]2)C1 [Compound 1859, N-((1R,3S)-3-(5-chloro-1H-imidazo[4,5-b]pyridin-2-yl)cyclohexyl)-N-(3,5-dichlorobenzyl)acetamide] | 1.43 µM | > 20 | 
8 | Clc1cc(Cl)cc(CN2CCC[C@H](c3nc4nc(Cl)ccc4[nH]3)C2)c1 [Compound 1868, (S)-5-chloro-2-(1-(3,5-dichlorobenzyl)piperidin-3-yl)-1H-imidazo[4,5-b]pyridine] | 0.077 µM | 1.08 | 
9 | O=C1N[C@@H](Cc2ccc(Cl)cc2Cl)CN1Cc1nc2ccccc2[nH]1 [Compound 1792, 1-(1H-Benzoimidazol-2-ylmethyl)-4-(2,4-dichloro-benzyl)-imidazolidin-2-one] | 0.15 µM | 2.68 | 
10 | O=C(NCc1nc2ccccc2[nH]1)N[C@H](CO)Cc1ccc(Cl)cc1Cl [Compound 1935, 1-((1H-benzo[d]imidazol-2-yl)methyl)-3-((S)-3-(2,4-dichlorophenyl)-1-hydroxypropan-2-yl)urea] | > 10 µM | 9.36 | 
11 | O=C(Cc1cc(Cl)cc(Cl)c1)N1CCOC(c2nc3nc(Cl)ccc3[nH]2)C1 (stereo not drawn) [Compound 1790, 1-(2-(5-chloro-1H-imidazo[4,5-b]pyridin-2-yl)morpholino)-2-(3,5-dichlorophenyl)ethanone] | 0.105 µM | 2.7 | 
12 | Clc1cc(Cl)c(Cl)c(CN[C@H]2CCCN(c3nc4nc(Cl)ccc4[nH]3)C2)c1 [Compound 1902, (S)-1-(5-chloro-1H-imidazo[4,5-b]pyridin-2-yl)-N-(2,3,5-trichlorobenzyl)piperidin-3-amine] | 0.018 µM | 0.354 | 
13 | Clc1cc(Cl)cc(CN[C@@H]2CCN(c3nc4ccc(Cl)nc4[nH]3)C2)c1 [Compound 1847, (3R)-1-{5-chloro-3H-imidazo[4,5-b]pyridin-2-yl}-N-[(3,5-dichlorophenyl)methyl]pyrrolidin-3-amine] | 0.696 µM | 9.01 | 
14 | CC(=O)N(C1CCNc2c(Cl)cc(Cl)cc21)[C@H]1CCCN(c2nc3nc(Cl)ccc3[nH]2)C1 (stereo partly drawn) [Compound 1943] | 2.13 µM and 3.54 µM | 0.419 | 0.389
15 | O=C(COc1ccc(Cl)cc1Cl)NCc1nc2ccccc2[nH]1 [Compound 1671, N-(1H-1,3-benzodiazol-2-ylmethyl)-2-(2,4-dichlorophenoxy)acetamide] | 1.27 µM | > 20 | 
16 | CC(Cc1nc2cc(F)c(Cl)cc2[nH]1)NCc1cc(Cl)cc(Cl)c1 (stereo not drawn) [Compound 1824, [1-(6-chloro-5-fluoro-1H-1,3-benzodiazol-2-yl)propan-2-yl][(3,5-dichlorophenyl)methyl]amine] | 0.16 µM | 2.24 | 
17 | O=C(Cc1cc(Cl)cc(Cl)c1)NCc1nc2ccc(Cl)cc2[nH]1 [Compound 1851, N-((6-chloro-1H-benzo[d]imidazol-2-yl)methyl)-2-(3,5-dichlorophenyl)acetamide] | 0.081 µM | 3.38 | 
18 | Clc1cc(Cl)cc(CN2CCCC(Cc3nc4nc(Cl)ccc4[nH]3)C2)c1 (stereo not drawn) [Compound 1814, 5-chloro-2-((1-(3,5-dichlorobenzyl)piperidin-3-yl)methyl)-1H-imidazo[4,5-b]pyridine] | 3.4 µM | 7.21 | 
19 | O=C(Cc1ccc(Cl)cc1Cl)NCc1nc2ccc(Br)cc2[nH]1 [Compound 1874, N-[(6-bromo-1H-1,3-benzodiazol-2-yl)methyl]-2-(2,4-dichlorophenyl)acetamide] | 0.051 µM | 3.65 | 

Row | Compound | IC50 (MetRS (T. brucei)) | EC50 (T. brucei; [1]) [µM] | EC50 (T. brucei; read-out: B) T. brucei EC50) [µM]
20 | Clc1cc(Cl)cc(CN2CCN(c3nc4nc(Cl)ccc4[nH]3)CC2)c1 [Compound 1866, 5-chloro-2-(4-(3,5-dichlorobenzyl)piperazin-1-yl)-1H-imidazo[4,5-b]pyridine] | > 10 µM | > 20 | 
21 | CC(=O)N(Cc1cc(Cl)cc(Cl)c1)C1CCCN(c2nc3nc(F)ccc3[nH]2)C1 (stereo not drawn) [Compound 1887, N-(3,5-dichlorobenzyl)-N-(1-(5-fluoro-1H-imidazo[4,5-b]pyridin-2-yl)piperidin-3-yl)acetamide] | 6.66 µM | > 20 | 
22 | Clc1cc(Cl)cc(CNC2CN(c3nc4nc(Cl)ccc4[nH]3)C2)c1 [Compound 1864, 1-{5-chloro-1H-imidazo[4,5-b]pyridin-2-yl}-N-[(3,5-dichlorophenyl)methyl]azetidin-3-amine] | 2.17 µM | > 20 | 
23 | CNCc1cc(Cl)cc(Cl)c1O/C=C/C(=O)NCc1nc2ccccc2[nH]1 [Compound 1779, (2E)-N-(1H-1,3-benzodiazol-2-ylmethyl)-3-{2,4-dichloro-6-[(methylamino)methyl]phenoxy}prop-2-enamide] | > 10 µM | > 20 | 
24 | O=C(Cc1cc(Cl)cc(Cl)c1)N1CCCC(c2nc3cc(Cl)c(F)cc3[nH]2)C1 (stereo not drawn) [Compound 1746, 1-(3-(5-chloro-6-fluoro-1H-benzo[d]imidazol-2-yl)piperidin-1-yl)-2-(3,5-dichlorophenyl)ethanone] | 0.138 µM | 3.33 | 
25 | Clc1cc(Cl)cc(CNC2CCCC(c3nc4cc(Cl)ccc4[nH]3)C2)c1 (stereo not drawn) [Compound 1840, 3-(5-chloro-1H-benzo[d]imidazol-2-yl)-N-(3,5-dichlorobenzyl) cyclohexanamine] | 0.58 µM | 1.95 | 
26 | CN(CCNCc1cc(Cl)cc(Cl)c1)c1nc2nc(Cl)c(Br)cc2[nH]1 [Compound 1894, 6-bromo-5-chloro-N-(2-{[(3,5-dichlorophenyl)methyl]amino}ethyl)-N-methyl-3H-imidazo[4,5-b]pyridin-2-amine] | 0.179 µM | 2.89 | 
27 | Clc1cc(Cl)cc(CNC2CCCC(c3nc4ncccc4[nH]3)C2)c1 (stereo not drawn) [Compound 1817, N-(3,5-dichlorobenzyl)-3-(1H-imidazo[4,5-b]pyridin-2-yl) cyclohexanamine] | > 10 µM | 2.06 | 
28 | Clc1ccc(CN2CCC[C@H](c3nc4nc(Cl)ccc4[nH]3)C2)c(Cl)c1 [Compound 1869, (S)-5-chloro-2-(1-(2,4-dichlorobenzyl)piperidin-3-yl)-1H-imidazo[4,5-b]pyridine] | 0.052 µM | 1.7 | 
29 | O=C(Cc1ccc(Cl)cc1Cl)NCc1nc2cnc(Cl)cc2[nH]1 [Compound 1880, N-({6-chloro-1H-imidazo[4,5-c]pyridin-2-yl}methyl)-2-(2,4-dichlorophenyl)acetamide] | 0.214 µM | 8.4 | 
30 | CC(C)Oc1c(Cl)cc(Cl)cc1CN[C@H]1CCCN(c2nc3nc(Cl)ccc3[nH]2)C1 [Compound 1931, (S)-1-(5-chloro-1H-imidazo[4,5-b]pyridin-2-yl)-N-(3,5-dichloro-2-isopropoxybenzyl)piperidin-3-amine] | 0.305 µM | 1.7 | 
31 | O=C(COc1ccc(Cl)cc1Cl)NCc1cc2ccccc2[nH]1 [Compound 1674, 2-(2,4-dichlorophenoxy)-N-(1H-indol-2-ylmethyl)acetamide] | 23 µM | > 20 | 
32 | Clc1cc(Cl)cc(CN[C@@H]2CCC[C@H](c3nc4nc(Cl)ccc4[nH]3)C2)c1 [Compound 1854, (1R,3S)-3-(5-chloro-1H-imidazo[4,5-b]pyridin-2-yl)-N-(3,5-dichlorobenzyl)cyclohexanamine] | 0.106 µM | 0.58 | 
33 | O=C(/C=C/Oc1ccc(Cl)cc1Cl)NNc1nc2ccccc2[nH]1 [Compound 1765, (2E)-N′-(1H-1,3-benzodiazol-2-yl)-3-(2,4-dichlorophcnoxy)prop-2-enehydrazide] | > 10 µM | > 20 | 
34 | O=C(Cc1cc(Cl)cc(Cl)c1)N1CCCC(c2nc3cc(F)ccc3[nH]2)C1 (stereo not drawn) [Compound 1744, 2-(3,5-dichlorophenyl)-1-(3-(5-fluoro-1H-benzo[d]imidazol-2-yl)piperidin-1-yl)ethanone] | 0.184 µM | 3.26 | 
35 | CC(Cc1nc2ccccc2[nH]1)NCc1cc(Cl)cc(Cl)c1 (stereo not drawn) [Compound 1819, [1-(1H-1,3-benzodiazol-2-yl)propan-2-yl][(3,5-dichlorophenyl)methyl]amine] | 7.23 µM | 8.9 | 
36 | Clc1ccc(CNC2CCCN(c3nc4nc(Cl)ccc4[nH]3)C2)c(Cl)c1 (stereo not drawn) [Compound 1857, 1-(5-chloro-1H-imidazo[4,5-b]pyridin-2-yl)-N-(2,4-dichlorobenzyl) piperidin-3-amine] | 0.072 µM | 1.48 | 
37 | O=C(CC(=O)Nc1ccc(Cl)cc1Cl)NCc1nc2ccccc2[nH]1 [Compound 1803, N1-((1H-benzo[d]imidazol-2-yl)methyl)-N3-(2,4-dichlorophenyl)malonamide] | > 10 µM | > 20 | 
